Values after ≈ are worked out from the molar mass of the structure shown. Where two headings read alike, the source gives them in different places.
Tests used:
[1] = system: Mycobacterium tuberculosis H37Ra ITM-M006710 (ATCC 9431); experiment: Antimycobacterial microdilution (resazurin) vs Mtb H37Ra; assay type: cell-based; conditions: Middlebrook 7H9, resazurin, recalculated from µg/mL, read-out: MIC Mtb H37Ra
[2] = system: Mycobacterium tuberculosis H37Rv CNCTC My 331/88 (ATCC 27294); experiment: Microplate Alamar Blue assay vs Mtb H37Rv; assay type: cell-based; conditions: Middlebrook 7H9 pH 6.6, recalculated from µg/mL, read-out: MIC Mtb H37Rv
[3] = system: Mycobacterium kansasii DSM 44,162 (ATCC 12478); experiment: Antimycobacterial microdilution (resazurin) vs M. kansasii; assay type: cell-based; conditions: Middlebrook 7H9, resazurin, read-out: MIC M. kansasii
[4] = system: Mycobacterium avium DSM 44,156 (ATCC 25291); experiment: Antimycobacterial microdilution (resazurin) vs M. avium; assay type: cell-based; conditions: Mycobacterium avium, Middlebrook 7H9, resazurin; read-out: MIC M. avium
[5] = system: Mycolicibacterium aurum DSM 43,999 (ATCC 23366); experiment: Antimycobacterial microdilution (resazurin) vs M. aurum; assay type: cell-based; conditions: read-out: MIC M. aurum
[6] = system: Mycolicibacterium smegmatis DSM 43,465 (ATCC 607); experiment: Antimycobacterial microdilution (resazurin) vs M. smegmatis; assay type: cell-based; conditions: Middlebrook 7H9, resazurin, read-out: MIC M. smeg.
[7] = system: Staphylococcus aureus subsp. aureus CCM 4223 (ATCC 29213); experiment: Antibacterial microdilution broth (EUCAST); assay type: cell-based; conditions: read-out: MIC Staphylococcus aureus subsp. aureus
[8] = system: methicillin-resistant Staphylococcus aureus subsp. aureus (MRSA) CCM 4750 (ATCC 43300); experiment: microbe, parasite or virus in culture; assay type: cell-based; conditions: read-out: MIC Methicillin-resistant Staphylococcus aureus subsp. aureus
[9] = system: Staphylococcus epidermidis CCM 4418 (ATCC 12228); experiment: Antibacterial microdilution broth (EUCAST); assay type: cell-based; conditions: read-out: MIC Staphylococcus epidermidis
[10] = system: Enterococcus faecalis CCM 4224 (ATCC 29212); experiment: Antibacterial microdilution broth (EUCAST); assay type: cell-based; conditions: read-out: MIC Enterococcus faecalis
[11] = system: Escherichia coli CCM 3954 (ATCC 25922); experiment: Antibacterial microdilution broth (EUCAST); assay type: cell-based; conditions: Escherichia coli, read-out: MIC Escherichia coli
[12] = system: Klebsiella pneumoniae CCM 4415 (ATCC 10031); experiment: Antibacterial microdilution broth (EUCAST); assay type: cell-based; conditions: Klebsiella pneumoniae, read-out: MIC Klebsiella pneumoniae
[13] = system: Acinetobacter baumannii DSM 30007 (ATCC 19606); experiment: Antibacterial microdilution broth (EUCAST); assay type: cell-based; conditions: read-out: MIC Acinetobacter baumannii
[14] = system: Pseudomonas aeruginosa CCM 3955 (ATCC 27853); experiment: Antibacterial microdilution broth (EUCAST); assay type: cell-based; conditions: read-out: MIC Pseudomonas aeruginosa
[15] = system: Candida albicans CCM 8320 (ATCC 24433); experiment: Antifungal microdilution broth (EUCAST); assay type: cell-based; conditions: Candida albicans, read-out: MIC Candida albicans
[16] = system: Candida krusei CCM 8271 (ATCC 6258); experiment: Antifungal microdilution broth (EUCAST); assay type: cell-based; conditions: Pichia kudriavzevii, read-out: MIC Candida krusei
[17] = system: Candida parapsilosis CCM 8260 (ATCC 22019); experiment: Antifungal microdilution broth (EUCAST); assay type: cell-based; conditions: Lodderomyces parapsilosis, read-out: MIC Candida parapsilosis
[18] = system: Candida tropicalis CCM 8264 (ATCC 750); experiment: Antifungal microdilution broth (EUCAST); assay type: cell-based; conditions: read-out: MIC Candida tropicalis
[19] = system: Aspergillus fumigatus ATCC 204305; experiment: Antifungal microdilution broth (EUCAST); assay type: cell-based; conditions: Aspergillus fumigatus, ATCC204305, read-out: MIC Aspergillus fumigatus
[20] = system: Aspergillus flavus CCM 8363; experiment: Antifungal microdilution broth (EUCAST); assay type: cell-based; conditions: Aspergillus flavus, CCM8363, read-out: MIC Aspergillus flavus
[21] = system: Lichtheimia corymbifera CCM 8077; experiment: Antifungal microdilution broth (EUCAST); assay type: cell-based; conditions: Lichtheimia corymbifera, CCM8077, read-out: MIC Lichtheimia corymbifera
[22] = system: Trichophyton interdigitale CCM 8377 (ATCC 9533); experiment: Antifungal microdilution broth (EUCAST); assay type: cell-based; conditions: Trichophyton interdigitale, read-out: MIC Trichophyton interdigitale
HepG2 cell line = experiment: Cytotoxicity screening, CellTiter 96 assay; conditions: Homo sapiens, HepG2, 24 h, read-out: IC50 HepG2
[23] = Mycobacterium tuberculosis, pH 6.6, MABA

O=C(Nc1ccc2c(c1)B(O)OC2)c1ccc(O)nc1 [Compound 13, 6-hydroxy-N-(1-hydroxy-1,3-dihydrobenzo[c][1,2]oxaborol-6-yl)nicotinamide]
MIC [1]: 463 µM (≈ 125 µg/mL)
MIC ([2]; MABA): >370.30 µM
MIC [2, 23]: > 370 µM
MIC [3]: 116 µM (≈ 31.3 µg/mL)
MIC [4]: 463 µM (≈ 125 µg/mL)
MIC ([5]; Middlebrook 7H9, resazurin): 116 µM (≈ 31.3 µg/mL)
MIC [6]: 116 µM (≈ 31.3 µg/mL)
MIC ([7]; 24h incubation): > 500 µM
MIC ([7]; 48h incubation): > 500 µM
MIC ([8]; 24 h): > 500 µM
MIC ([8]; 48 h): > 500 µM
MIC ([9]; 24h incubation): > 500 µM
MIC ([9]; 48h incubation): > 500 µM
MIC ([10]; 24h incubation): > 500 µM
MIC ([10]; 48h incubation): > 500 µM
MIC ([11]; 24h incubation): > 500 µM
MIC ([11]; 48h incubation): > 500 µM
MIC ([12]; 24h incubation): > 500 µM
MIC ([12]; 48h incubation): > 500 µM
MIC ([13]; 24h incubation): > 500 µM
MIC ([13]; 48h incubation): > 500 µM
MIC ([14]; 24h incubation): > 500 µM
MIC ([14]; 48h incubation): > 500 µM
MIC ([15]; 24h incubation): > 500 µM
MIC ([15]; 48h incubation): > 500 µM
MIC ([16]; 24h incubation): > 500 µM
MIC ([16]; 48h incubation): > 500 µM
MIC ([17]; 24h incubation): > 500 µM
MIC ([17]; 48h incubation): > 500 µM
MIC ([18]; 24h incubation): > 500 µM
MIC ([18]; 48h incubation): > 500 µM
MIC ([19]; 24h incubation): > 500 µM
MIC ([19]; 48h incubation): > 500 µM
MIC ([20]; 24h incubation): > 500 µM
MIC ([20]; 48h incubation): > 500 µM
MIC ([21]; 24h incubation): > 500 µM
MIC ([21]; 48h incubation): > 500 µM
MIC ([22]; 72h incubation): > 500 µM
MIC ([22]; 120h incubation): > 500 µM
melting point: 304.8 to 306.9 °C
IC50 (HepG2 cell line): > 1000 µM

O=C(Nc1ccc2c(c1)B(O)OC2)c1ccc(Cl)cc1 [Compound 14, 4-chloro-N-(1-hydroxy-1,3-dihydrobenzo[c][1,2]oxaborol-6-yl)benzamide]
MIC [1]: 435 µM (≈ 125 µg/mL)
MIC [2, 23]: 43.5 µM (≈ 12.5 µg/mL)
MIC [3]: 217 µM (≈ 62.5 µg/mL)
MIC [4]: 435 µM (≈ 125 µg/mL)
MIC ([5]; Middlebrook 7H9, resazurin): 13.6 µM (≈ 3.91 µg/mL)
MIC [6]: 217 µM (≈ 62.5 µg/mL)
MIC ([7]; 24h incubation): > 500 µM
MIC ([7]; 48h incubation): > 500 µM
MIC ([8]; 24 h): > 500 µM
MIC ([8]; 48 h): > 500 µM
MIC ([9]; 24h incubation): > 500 µM
MIC ([9]; 48h incubation): > 500 µM
MIC ([10]; 24h incubation): > 500 µM
MIC ([10]; 48h incubation): > 500 µM
MIC ([11]; 24h incubation): > 500 µM
MIC ([11]; 48h incubation): > 500 µM
MIC ([12]; 24h incubation): > 500 µM
MIC ([12]; 48h incubation): > 500 µM
MIC ([13]; 24h incubation): > 500 µM
MIC ([13]; 48h incubation): > 500 µM
MIC ([14]; 24h incubation): > 500 µM
MIC ([14]; 48h incubation): > 500 µM
MIC ([15]; 24h incubation): > 125 µM
MIC ([15]; 48h incubation): > 125 µM
MIC ([16]; 24h incubation): > 125 µM
MIC ([16]; 48h incubation): > 125 µM
MIC ([17]; 24h incubation): > 125 µM
MIC ([17]; 48h incubation): > 125 µM
MIC ([18]; 24h incubation): > 125 µM
MIC ([18]; 48h incubation): > 125 µM
MIC ([19]; 24h incubation): > 125 µM
MIC ([19]; 48h incubation): > 125 µM
MIC ([20]; 24h incubation): > 125 µM
MIC ([20]; 48h incubation): > 125 µM
MIC ([21]; 24h incubation): > 125 µM
MIC ([21]; 48h incubation): > 125 µM
MIC ([22]; 72h incubation): > 125 µM
MIC ([22]; 120h incubation): > 125 µM
melting point: 225.5 to 228.1 °C
IC50 (HepG2 cell line): > 1000 µM

O=C(Nc1ccc2c(c1)B(O)OC2)c1ccc(Cl)s1 [Compound 15, 5-chloro-N-(1-hydroxy-1,3-dihydrobenzo[c][1,2]oxaborol-6-yl)thiophene-2-carboxamide]
MIC [1]: 53.2 µM (≈ 15.6 µg/mL)
MIC [2, 23]: 42.6 µM (≈ 12.5 µg/mL)
MIC [3]: 106 µM (≈ 31.3 µg/mL)
MIC [4]: 426 µM (≈ 125 µg/mL)
MIC [5]: 53.2 µM (≈ 15.6 µg/mL)
MIC [6]: 852 µM (≈ 250 µg/mL)
MIC ([7]; 24h incubation): 500 µM (≈ 147 µg/mL)
MIC ([7]; 48h incubation): 500 µM (≈ 147 µg/mL)
MIC ([8]; 24 h): 500 µM (≈ 147 µg/mL)
MIC ([8]; 48 h): 500 µM (≈ 147 µg/mL)
MIC ([9]; 24h incubation): 500 µM (≈ 147 µg/mL)
MIC ([9]; 48h incubation): 500 µM (≈ 147 µg/mL)
MIC ([10]; 24h incubation): > 500 µM
MIC ([10]; 48h incubation): > 500 µM
MIC ([11]; 24h incubation): > 500 µM
MIC ([11]; 48h incubation): > 500 µM
MIC ([12]; 24h incubation): > 500 µM
MIC ([12]; 48h incubation): > 500 µM
MIC ([13]; 24h incubation): > 500 µM
MIC ([13]; 48h incubation): > 500 µM
MIC ([14]; 24h incubation): > 500 µM
MIC ([14]; 48h incubation): > 500 µM
MIC ([15]; 24h incubation): > 500 µM
MIC ([15]; 48h incubation): > 500 µM
MIC ([16]; 24h incubation): > 500 µM
MIC ([16]; 48h incubation): > 500 µM
MIC ([17]; 24h incubation): > 500 µM
MIC ([17]; 48h incubation): > 500 µM
MIC ([18]; 24h incubation): > 500 µM
MIC ([18]; 48h incubation): > 500 µM
MIC ([19]; 24h incubation): > 500 µM
MIC ([19]; 48h incubation): > 500 µM
MIC ([20]; 24h incubation): > 500 µM
MIC ([20]; 48h incubation): > 500 µM
MIC ([21]; 24h incubation): > 500 µM
MIC ([21]; 48h incubation): > 500 µM
MIC ([22]; 72h incubation): > 500 µM
MIC ([22]; 120h incubation): > 500 µM
melting point: 234.9 to 237.1 °C
IC50 (HepG2 cell line): 210 µM
